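Where inhibition never reached the appropriate level, the endpoint shown equals the highest concentration tested. Otherwise, values were interpolated linearly from a five-concentration, 48-hour dose response in 96-well plates. At the GI50, growth is halved. The concentration for full growth arrest is given as TGI.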
Tests used:
Experiment in all cases: DTP human tumour cell line panel, 48 h
ACHN renal = tested on: ACHN renal
UACC-257 melanoma = tested on: UACC-257 melanoma
KM12 colon = tested on: KM12 colon
SF-295 CNS = tested on: SF-295 CNS
RXF 393 renal = tested on: RXF 393 renal
MALME-3M melanoma = tested on: MALME-3M melanoma
HCT-116 colon = tested on: HCT-116 colon
U251 CNS = tested on: U251 CNS
OVCAR-3 ovarian = tested on: OVCAR-3 ovarian
DU-145 prostate = tested on: DU-145 prostate
K-562 leukemia = tested on: K-562 leukemia
OVCAR-5 ovarian = tested on: OVCAR-5 ovarian
SK-MEL-5 melanoma = tested on: SK-MEL-5 melanoma
SF-268 CNS = tested on: SF-268 CNS
786-0 renal = tested on: 786-0 renal
CAKI-1 renal = tested on: CAKI-1 renal
HT29 colon = tested on: HT29 colon
CCRF-CEM leukemia = tested on: CCRF-CEM leukemia
TK-10 renal = tested on: TK-10 renal
A549 NSCLC = tested on: A549 NSCLC
SW-620 colon = tested on: SW-620 colon
EKVX NSCLC = tested on: EKVX NSCLC
SK-MEL-28 melanoma = tested on: SK-MEL-28 melanoma
HS 578T breast = tested on: HS 578T breast
NCI/ADR-RES ovarian = tested on: NCI/ADR-RES ovarian
SF-539 CNS = tested on: SF-539 CNS
HOP-92 NSCLC = tested on: HOP-92 NSCLC
SNB-75 CNS = tested on: SNB-75 CNS
A498 renal = tested on: A498 renal
MDA-MB-435 = tested on: MDA-MB-435
M14 melanoma = tested on: M14 melanoma
SN12C renal = tested on: SN12C renal
OVCAR-8 ovarian = tested on: OVCAR-8 ovarian
NCI-H23 lung = tested on: NCI-H23 lung
T-47D breast = tested on: T-47D breast
SK-OV-3 ovarian = tested on: SK-OV-3 ovarian
PC-3 prostate = tested on: PC-3 prostate
HCC-2998 colon = tested on: HCC-2998 colon
RPMI-8226 leukemia = tested on: RPMI-8226 leukemia
LOX IMVI melanoma = tested on: LOX IMVI melanoma
MCF7 breast = tested on: MCF7 breast
HL-60(TB) leukemia = tested on: HL-60(TB) leukemia
UO-31 renal = tested on: UO-31 renal
MDA-MB-231 breast = tested on: MDA-MB-231 breast
HCT-15 colon = tested on: HCT-15 colon
UACC-62 melanoma = tested on: UACC-62 melanoma
BT-549 breast = tested on: BT-549 breast
NCI-H460 lung = tested on: NCI-H460 lung
SR leukemia = tested on: SR leukemia
HOP-62 NSCLC = tested on: HOP-62 NSCLC
MOLT-4 leukemia = tested on: MOLT-4 leukemia

`COC[C@]12CC[C@@H](C)[C@H](C)[C@H]1C1=CC[C@@H]3[C@@]4(C)CCCNC(C)(C)[C@@H]4CC[C@@]3(C)[C@]1(C)CC2` gave a GI50 (ACHN renal) of 1780 nM, a TGI (ACHN renal) of 3220 nM and a GI50 (UACC-257 melanoma) of 2050 nM. For the same compound, the TGI (UACC-257 melanoma) was 4460 nM, the GI50 (KM12 colon) was 1860 nM and the TGI (KM12 colon) was 3430 nM. It also gave a GI50 (SF-295 CNS) of 1880 nM, a TGI (SF-295 CNS) of 3570 nM and a GI50 (RXF 393 renal) of 1540 nM. For the same compound, the TGI (RXF 393 renal) was 3020 nM, the GI50 (MALME-3M melanoma) was 1740 nM and the TGI (MALME-3M melanoma) was 3610 nM. For the same compound, the GI50 (HCT-116 colon) was 1490 nM, the TGI (HCT-116 colon) was 2920 nM and the GI50 (U251 CNS) was 1720 nM. It also gave a TGI (U251 CNS) of 3430 nM, a GI50 (OVCAR-3 ovarian) of 1830 nM and a TGI (OVCAR-3 ovarian) of 3290 nM. It also gave a GI50 (DU-145 prostate) of 1930 nM, a TGI (DU-145 prostate) of 3410 nM and a GI50 (K-562 leukemia) of 1050 nM. The TGI (K-562 leukemia) was 2810 nM, the GI50 (OVCAR-5 ovarian) was 1810 nM and the TGI (OVCAR-5 ovarian) was 3320 nM. It also gave a GI50 (SK-MEL-5 melanoma) of 1710 nM, a TGI (SK-MEL-5 melanoma) of 3110 nM and a GI50 (SF-268 CNS) of 1920 nM. The TGI (SF-268 CNS) was 3740 nM, the GI50 (786-0 renal) was 1690 nM and the TGI (786-0 renal) was 3210 nM. The GI50 (CAKI-1 renal) was 1750 nM, the TGI (CAKI-1 renal) was 3360 nM and the GI50 (HT29 colon) was 1580 nM. The TGI (HT29 colon) was 3260 nM, the GI50 (CCRF-CEM leukemia) was 1670 nM and the TGI (CCRF-CEM leukemia) was 4200 nM. For the same compound, the GI50 (TK-10 renal) was 1870 nM, the TGI (TK-10 renal) was 3520 nM and the GI50 (A549 NSCLC) was 1800 nM. It also gave a TGI (A549 NSCLC) of 3770 nM, a GI50 (SW-620 colon) of 1800 nM and a TGI (SW-620 colon) of 3580 nM. It also gave a GI50 (EKVX NSCLC) of 1700 nM, a TGI (EKVX NSCLC) of 3420 nM and a GI50 (SK-MEL-28 melanoma) of 1810 nM. The TGI (SK-MEL-28 melanoma) was 3340 nM, the GI50 (HS 578T breast) was 2040 nM and the TGI (HS 578T breast) was 4850 nM. The GI50 (NCI/ADR-RES ovarian) was 1780 nM, the TGI (NCI/ADR-RES ovarian) was 3570 nM and the GI50 (SF-539 CNS) was 1600 nM. For the same compound, the TGI (SF-539 CNS) was 3030 nM, the GI50 (HOP-92 NSCLC) was 1540 nM and the TGI (HOP-92 NSCLC) was 4360 nM. It also gave a GI50 (SNB-75 CNS) of 1770 nM, a TGI (SNB-75 CNS) of 4770 nM and a GI50 (A498 renal) of 1510 nM. For the same compound, the TGI (A498 renal) was 3380 nM, the GI50 (MDA-MB-435) was 1650 nM and the TGI (MDA-MB-435) was 3110 nM. For the same compound, the GI50 (M14 melanoma) was 1770 nM, the TGI (M14 melanoma) was 3570 nM and the GI50 (SN12C renal) was 3090 nM. It also gave a TGI (SN12C renal) of 11800 nM, a GI50 (OVCAR-8 ovarian) of 2190 nM and a TGI (OVCAR-8 ovarian) of 4940 nM. The GI50 (NCI-H23 lung) was 1800 nM, the TGI (NCI-H23 lung) was 3620 nM and the GI50 (T-47D breast) was 1870 nM. The TGI (T-47D breast) was 4390 nM, the GI50 (SK-OV-3 ovarian) was 5130 nM and the TGI (SK-OV-3 ovarian) was 19800 nM. For the same compound, the GI50 (PC-3 prostate) was 1490 nM, the TGI (PC-3 prostate) was 3380 nM and the GI50 (HCC-2998 colon) was 1760 nM. It also gave a TGI (HCC-2998 colon) of 3380 nM, a GI50 (RPMI-8226 leukemia) of 2190 nM and a TGI (RPMI-8226 leukemia) of 5190 nM. For the same compound, the GI50 (LOX IMVI melanoma) was 1130 nM, the TGI (LOX IMVI melanoma) was 2490 nM and the GI50 (MCF7 breast) was 1540 nM. The TGI (MCF7 breast) was 3370 nM, the GI50 (HL-60(TB) leukemia) was 1280 nM and the TGI (HL-60(TB) leukemia) was 3050 nM. It also gave a GI50 (UO-31 renal) of 1570 nM, a TGI (UO-31 renal) of 3200 nM and a GI50 (MDA-MB-231 breast) of 1810 nM. It also gave a TGI (MDA-MB-231 breast) of 3400 nM, a GI50 (HCT-15 colon) of 1510 nM and a TGI (HCT-15 colon) of 3160 nM. It also gave a GI50 (UACC-62 melanoma) of 1710 nM, a TGI (UACC-62 melanoma) of 3190 nM and a GI50 (BT-549 breast) of 1800 nM. For the same compound, the TGI (BT-549 breast) was 3600 nM, the GI50 (NCI-H460 lung) was 1720 nM and the TGI (NCI-H460 lung) was 3350 nM. The GI50 (SR leukemia) was 1480 nM, the TGI (SR leukemia) was 3250 nM and the GI50 (HOP-62 NSCLC) was 1730 nM. For the same compound, the TGI (HOP-62 NSCLC) was 3550 nM, the GI50 (MOLT-4 leukemia) was 1300 nM and the TGI (MOLT-4 leukemia) was 3030 nM.
